“And” between values parts separate entries of the source, which are not always exact repeats. Equal entries are not always repeated. Results filed as inconclusive are left out.
Test system: MX-1 breast xenograft, intrarenal, nude mice, tumor weight
Assay: NCI In Vivo Anticancer Drug Screen. Data for tumor model Human Mammary Carcinoma MX-1 Xenograft (intrarenal inoculation) in NU/NU BALB/C (nude) mice
Conditions: endpoint: mean tumor weight change, higher = larger tumour
Procedure, shortened: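 Mice w/ transplanted tumors, drug vs vehicle; endpoint survival or tumor size; value = T/C.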

[1] = dose: 75.0 mg/kg/injection, schedule: Q04DX003 (ip), vehicle: saline with Tween-80
[2] = dose: 150.0 mg/kg/injection, schedule: Q04DX003 (ip), vehicle: saline with Tween-80
[3] = dose: 300.0 mg/kg/injection, schedule: Q04DX003 (ip), vehicle: saline with Tween-80
[4] = dose: 600.0 mg/kg/injection, schedule: Q04DX003 (ip), vehicle: saline with Tween-80
[5] = dose: 18.75 mg/kg/injection, schedule: Q04DX003 (ip), vehicle: water
[6] = dose: 37.5 mg/kg/injection, schedule: Q04DX003 (ip), vehicle: water
[7] = dose: 150.0 mg/kg/injection, schedule: Q04DX003 (ip), vehicle: Klucel (hydroxypropylcellulose) (HPC)
[8] = dose: 300.0 mg/kg/injection, schedule: Q04DX003 (ip), vehicle: Klucel (hydroxypropylcellulose) (HPC)
[9] = dose: 600.0 mg/kg/injection, schedule: Q04DX003 (ip), vehicle: Klucel (hydroxypropylcellulose) (HPC)
[10] = dose: 1200.0 mg/kg/injection, schedule: Q04DX003 (ip), vehicle: Klucel (hydroxypropylcellulose) (HPC)
[11] = dose: 150.0 mg/kg/injection, schedule: Q04DX003 (ip), vehicle: suspension in saline
[12] = dose: 300.0 mg/kg/injection, schedule: Q04DX003 (ip), vehicle: suspension in saline
[13] = dose: 600.0 mg/kg/injection, schedule: Q04DX003 (ip), vehicle: suspension in saline
[14] = dose: 1200.0 mg/kg/injection, schedule: Q04DX003 (ip), vehicle: suspension in saline
[15] = dose: 100.0 mg/kg/injection, schedule: Q04DX003 (ip), vehicle: distilled water + Tween-80
[16] = dose: 200.0 mg/kg/injection, schedule: Q04DX003 (ip), vehicle: distilled water + Tween-80

In the case of Nc1ccn(C2CC(N)C(CO)O2)c(=O)n1 (stereo not given), the T/C [1] is reported as 77 % of control, the T/C [2] is reported as 105 % of control and the T/C [3] is reported as 74 % of control. The T/C [4] was 82 % of control.
For CN1CCN(CN2C(=O)C3C4C=CC(C3C2=O)C2C3C(=O)N(CN5CCN(C)CC5)C(=O)C3C42)CC1 (stereo not given), the T/C (dose: 9.3 mg/kg/injection, schedule: Q04DX003 (ip), vehicle: water) was 98 % of control, the T/C [5] was 106 % of control and the T/C (dose: 25.0 mg/kg/injection, schedule: Q04DX003 (ip), vehicle: water) was 67 % of control. The T/C [6] was 83 % of control, the T/C (dose: 50.0 mg/kg/injection, schedule: Q04DX003 (ip), vehicle: water) was 52 % of control and the T/C (dose: 75.0 mg/kg/injection, schedule: Q04DX003 (ip), vehicle: other) was 122 % of control. The T/C (dose: 75.0 mg/kg/injection, schedule: Q04DX003 (ip), vehicle: water) was 72 % of control and 94 % of control and the T/C (dose: 100.0 mg/kg/injection, schedule: Q04DX003 (ip), vehicle: water) was 45 % of control.
NC(N)=NS(=O)(=O)c1ccc(NCc2c3ccccc3nc3ccccc23)cc1 was tested, and the T/C [7] was 38 % of control and 41 % of control, the T/C [8] was 40 % of control and 43 % of control and the T/C [9] was 17 % of control and 22 % of control. For the same compound, the T/C [10] was 11 % of control and 17 % of control.
CC[C@]1(O)C[C@H]2CN(CCc3c([nH]c4ccccc34)[C@@](C(=O)OC)(c3cc4c(cc3OC)N(C)[C@H]3[C@@](O)(C(=O)OC)[C@H](OC(C)=O)[C@]5(CC)C=CCN6CC[C@]43[C@@H]65)C2)C1 was tested, and the T/C (dose: 0.25 mg/kg/injection, schedule: Q01DX010 (sc), vehicle: saline) was 43 % of control and the T/C (dose: 0.5 mg/kg/injection, schedule: Q01DX010 (sc), vehicle: saline) was 18 % of control.
In the case of O=c1[nH]cnc2c1nnn2C1OC(CO)C(O)C1O (stereo not given), the T/C (dose: 150.0 mg/kg/injection, schedule: Q04DX003 (ip), vehicle: saline) is reported as 18 % of control and 32 % of control, the T/C [11] is reported as 11 % of control and 24 % of control and the T/C (dose: 300.0 mg/kg/injection, schedule: Q04DX003 (ip), vehicle: saline) is reported as 17 % of control and 19 % of control. The T/C [12] was 10 % of control and 20 % of control, the T/C (dose: 600.0 mg/kg/injection, schedule: Q04DX003 (ip), vehicle: saline) was 8 % of control and 13 % of control and the T/C [13] was 9 % of control and 13 % of control. The T/C (dose: 1200.0 mg/kg/injection, schedule: Q04DX003 (ip), vehicle: saline) was 9 % of control and 11 % of control and the T/C [14] was 8 % of control and 12 % of control.
With CCOC(=O)/C=C/C(=O)N1CCN(C(=O)/C=C/C(=O)OCC)C(C)C1 (stereo not given) the T/C [7] was 103 % of control, the T/C [8] was 83 % of control and the T/C [9] was 77 % of control.
In the case of c1ccc2c(NCCCCCCCCNc3c4ccccc4nc4ccccc34)c3ccccc3nc2c1, the T/C (dose: 20.0 mg/kg/injection, schedule: Q01DX010 (sc), vehicle: Klucel (hydroxypropylcellulose) (HPC)) is reported as 106 % of control, the T/C (dose: 40.0 mg/kg/injection, schedule: Q01DX010 (sc), vehicle: Klucel (hydroxypropylcellulose) (HPC)) is reported as 107 % of control and the T/C (dose: 80.0 mg/kg/injection, schedule: Q01DX010 (sc), vehicle: Klucel (hydroxypropylcellulose) (HPC)) is reported as 100 % of control. The T/C (dose: 160.0 mg/kg/injection, schedule: Q01DX010 (sc), vehicle: Klucel (hydroxypropylcellulose) (HPC)) was 99 % of control.
For CC(C)CC(=O)NC(C(=O)NC(C(=O)NC(CC(C)C)C(O)CC(=O)NC(C)C(=O)NC(CC(C)C)C(O)CC(=O)O)C(C)C)C(C)C (stereo not given), the T/C (dose: 150.0 mg/kg/injection, schedule: Q04DX002 (ip), vehicle: Klucel (hydroxypropylcellulose) (HPC)) was 47 % of control, the T/C [7] was 85 % of control and the T/C (dose: 300.0 mg/kg/injection, schedule: Q04DX002 (ip), vehicle: Klucel (hydroxypropylcellulose) (HPC)) was 57 % of control. For the same compound, the T/C (dose: 600.0 mg/kg/injection, schedule: Q04DX002 (ip), vehicle: Klucel (hydroxypropylcellulose) (HPC)) was 21 % of control.
In the case of CCN(CC)c1cc(C(=O)O)cc(N(CC)CC)n1, the T/C (dose: 50.0 mg/kg/injection, schedule: Q04DX003 (ip), vehicle: other) is reported as 155 % of control and the T/C (dose: 100.0 mg/kg/injection, schedule: Q04DX003 (ip), vehicle: other) is reported as 74 % of control.
In the case of COC1/C=C/C=C(/C)Cc2cc(O)c(Cl)c(c2)N(C)C(=O)CC(OC(=O)C(C)C)C2(C)OC2C(C)C2CC1(O)NC(=O)O2 (stereo not given), the T/C (dose: 1.0 mg/kg/injection, schedule: Q04DX003 (sc), vehicle: saline + alcohol) is reported as 70 % of control, the T/C (dose: 2.0 mg/kg/injection, schedule: Q04DX003 (sc), vehicle: saline + alcohol) is reported as 33 % of control and the T/C (dose: 4.0 mg/kg/injection, schedule: Q04DX003 (sc), vehicle: saline + alcohol) is reported as -47 % of control. The T/C (dose: 8.0 mg/kg/injection, schedule: Q04DX003 (sc), vehicle: saline + alcohol) was -100 % of control.
With S=c1sc2ccccc2n1CN1CCOCC1 the T/C [1] was 77 % of control and 84 % of control, the T/C [2] was 110 % of control and 115 % of control and the T/C [3] was 79 % of control and 90 % of control. The T/C [4] was 67 % of control and 82 % of control.
N#Cc1c(-c2ccccc2)c(-c2ccccc2)nn(CC(=O)O)c1=O was tested, and the T/C [15] was 120 % of control and the T/C [16] was 85 % of control.
C[C@]12CCC(=O)C(O)=C1CC[C@@H]1[C@@H]2CC[C@]2(C)C(=O)CC[C@@H]12 was tested, and the T/C [7] was 101 % of control, the T/C [8] was 96 % of control and the T/C [9] was 122 % of control. For the same compound, the T/C [10] was 113 % of control.
In the case of CC(C)N1C(=O)N(Cl)C2C1N(Cl)C(=O)N2Cl (stereo not given), the T/C (dose: 25.0 mg/kg/injection, schedule: Q04DX003 (ip), vehicle: saline with Tween-80) is reported as 113 % of control.
For COC1C(CO)OC(n2c3c(Cl)cccc3c3c4c(c5c6cccc(Cl)c6[nH]c5c32)C(=O)NC4=O)C(O)C1O (stereo not given), the T/C [15] was 69 % of control, the T/C [16] was 43 % of control and the T/C (dose: 400.0 mg/kg/injection, schedule: Q04DX003 (ip), vehicle: distilled water + Tween-80) was 21 % of control. The T/C (dose: 800.0 mg/kg/injection, schedule: Q04DX003 (ip), vehicle: distilled water + Tween-80) was 30 % of control.
C=C1C(O)C2(O)OCC34C(CC5C(C)=CC(=O)C(O)C5(C)C23)OC(=O)C(OC(=O)C/C=C/CCCCCCCC)C14 (stereo not given) was tested, and the T/C (dose: 12.5 mg/kg/injection, schedule: Q04DX003 (ip), vehicle: saline + alcohol) was 38 % of control.
For NCCCN=c1ccc2c3c1c(O)c1c(O)ccc(=O)c1c3[nH]n2CCNCCO, the T/C (dose: 9.35 mg/kg/injection, schedule: Q04DX003 (ip), vehicle: water) was 19 % of control, the T/C (dose: 9.38 mg/kg/injection, schedule: Q04DX003 (ip), vehicle: water) was 11 % of control and the T/C [5] was -33 % of control and -19 % of control and -16 % of control. The T/C [6] was -87 % of control and -83 % of control and -100 % of control.
In the case of CN1C2CCC1C(Br)C(=O)C2 (stereo not given), the T/C (dose: 100.0 mg/kg/injection, schedule: Q04DX003 (ip), vehicle: saline) is reported as 100 % of control and the T/C (dose: 200.0 mg/kg/injection, schedule: Q04DX003 (ip), vehicle: saline) is reported as 66 % of control.
With O=S(=O)(c1cccc(N=C=S)c1)c1cccc(N=C=S)c1 the T/C (dose: 50.0 mg/kg/injection, schedule: Q04DX003 (ip), vehicle: Klucel (hydroxypropylcellulose) (HPC)) was 121 % of control, the T/C (dose: 100.0 mg/kg/injection, schedule: Q04DX003 (ip), vehicle: Klucel (hydroxypropylcellulose) (HPC)) was 83 % of control and the T/C (dose: 200.0 mg/kg/injection, schedule: Q04DX003 (ip), vehicle: Klucel (hydroxypropylcellulose) (HPC)) was 82 % of control.
In the case of NC(=O)CCC(N)C(=O)O (stereo not given), the T/C [11] is reported as 91 % of control, the T/C [12] is reported as 102 % of control and the T/C [13] is reported as 76 % of control. For the same compound, the T/C [14] was 87 % of control.
In the case of O=C[C@@H](CO)O[C@H](C=O)n1cnc2c(=O)[nH]cnc21, the T/C (dose: 100.0 mg/kg/injection, schedule: Q04DX003 (sc), vehicle: saline with Tween-80) is reported as 73 % of control, the T/C (dose: 200.0 mg/kg/injection, schedule: Q04DX003 (sc), vehicle: saline with Tween-80) is reported as 35 % of control and the T/C (dose: 400.0 mg/kg/injection, schedule: Q04DX003 (sc), vehicle: saline with Tween-80) is reported as -63 % of control.

— PubChem BioAssay AID298 (DTP/NCI, 2004)
